We go through 2 compounds from patent publication US7291469B2, “Mutant met and uses therefor” (The Regents of the University of California, priority 2004, dated 2007).

One experiment relates to Met gene expression. In words: Met gene expression by semi-quantitative RT-PCR under hypoxia mimic. Format: cell-based. Conditions: two canine OSA cell lines. An excerpt:
To evaluate the effects of hypoxia on Met gene expression, we cultured two different canine OSA cell lines in the presence of cobalt chloride, an agent that mimics hypoxia. […] Given the substantial data indicating a role of Met in a variety of human cancers, it is likely that dysregulation of Met will play a similar role in canine cancers.

A further experiment has as its system canine Met. In words: Met phosphorylation in canine tumor cell lines after rhHGF stimulation. Format: cell-based. Here is the method:
It is possible that this mutation results in the basal phosphorylation of Met in this cell line.
To determine whether HGF stimulation of canine Met induces appropriate Met autophosphorylation and downstream signal transduction, Met expressing tumor cell lines were treated with recombinant human HGF and the phosphorylation of Met on several specific tyrosines as well as phosphorylation of downstream signaling components were evaluated. […] It was then necessary to determine whether all critical tyrosine residues were phosphorylated after rhHGF exposure, as it was possible that the recombinant human protein was only inducing partial or incomplete signal transduction. […] Although this could be attributed to autocrine HGF and HGFA production, the D17 cell line also has the D544N mutation.

Another experiment concerns Gab-1, Erk1/2, and Akt. In words: Phosphorylation of downstream signal transduction components Gab-1, Erk1/2 and Akt after rhHGF stimulation. Format: cell-based, canine. An excerpt: The activation of downstream signal transduction components Gab-1, Erk1/2, and Akt were then examined. […] It is possible that in these cases, other growth factor pathways contribute to this high level of basal phosphorylation.

In another experiment the test system is canine OSA cells. The experiment in a line: Scattering and migration of canine OSA cells under growth factor deprivation with HGF. Format: cell-based. Conditions: medium without fetal bovine serum, HGF added. An excerpt:
To evaluate the ability of OSA cells to scatter and migrate, we cultured cells in medium containing fetal bovine serum or no fetal bovine serum (stressful condition), then stimulated with HGF. The OSA cells began to show evidence of morphology change (scattering) upon growth factor deprivation.

The subject of experiment [1] is NIH-3T3 cells stably transfected with canine Met constructs. The experiment in a line: Gap migration assay in NIH-3T3 cells stably transfected with canine Met constructs. It is filed as cell-based. Particulars: R988C, M1251T, D544N, G966S Met lines; 50 ng/ml; 24 hours. The protocol:
Cells were allowed to grow to confluence in tissue culture, then defects were created manually to create a “gap” in the cells. The cells were then left in medium alone or treated with recombinant human HGF (rhHGF) at 50 ng/ml. Cells were also treated with a Met inhibitor in the absence or presence of rhHGF. Cultures were evaluated 24 hours later by staining the cells with crystal violet and digital imaging.

canine Met, sequence (Q75ZY9 25-308 limits assumed): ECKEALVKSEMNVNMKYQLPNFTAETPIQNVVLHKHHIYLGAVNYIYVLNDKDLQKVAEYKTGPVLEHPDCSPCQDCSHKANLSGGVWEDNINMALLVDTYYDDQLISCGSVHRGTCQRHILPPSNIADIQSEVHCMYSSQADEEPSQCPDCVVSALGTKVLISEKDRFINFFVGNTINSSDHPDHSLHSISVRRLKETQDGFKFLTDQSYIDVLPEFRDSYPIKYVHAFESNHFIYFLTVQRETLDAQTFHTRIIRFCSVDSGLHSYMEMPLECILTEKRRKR
canine Met, sequence (Q75ZY9 309-516 limits assumed): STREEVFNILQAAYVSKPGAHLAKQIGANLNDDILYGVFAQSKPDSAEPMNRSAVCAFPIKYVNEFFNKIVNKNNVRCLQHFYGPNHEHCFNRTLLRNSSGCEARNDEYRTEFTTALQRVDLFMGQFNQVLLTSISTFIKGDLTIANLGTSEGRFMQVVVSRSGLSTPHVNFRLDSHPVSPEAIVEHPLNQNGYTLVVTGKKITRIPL

As for `[Cl][Co][Cl]` [cobalt chloride], the Met gene expression entry in the experiment with Met gene expression is given as “upregulation of Met gene expression”.
On to “rhHGF: recombinant human hepatocyte growth factor, the ligand for Met”, for which, in the experiment with canine Met (OSA8 canine OSA cell line), the “phosphorylation of Met tyrosines 1003, 1230/34/35, 1349 and 1365” value is listed as “all phosphorylated appropriately”. In the experiment with canine Met (canine OSA cell lines), the “concentration of maximal stimulation of Met phosphorylation” value turned out to be 50 ng/mL and the “phosphorylation of canine Met” value is listed as “induced phosphorylation of canine Met in all cell lines tested in a dose dependent fashion”. In addition, in the experiment on Gab-1, Erk1/2, and Akt (Mel 3 and Mel 8 cell lines), the “Erk and Akt phosphorylation” value is “inducible Erk and Akt phosphorylation”. The Gab-1 phosphorylation result in the experiment with Gab-1, Erk1/2, and Akt (each of the canine cell lines tested) is given as “Gab-1 was phosphorylated”. Besides, the “morphology change (scattering)” value with canine OSA cells is listed as “further enhanced”. In experiment [1], the “migration compared to NIH-3T3 expressing wild-type Met” value was “markedly increased”.
